In PubChem BioAssay (NCI):
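Dose response: 5 concentrations. Exposure: 48 h. Format: 96-well plates. Endpoint: linear interpolation; highest concentration if not reached. Here, GI50 denotes the concentration required for 50% inhibition of growth. TGI: total growth inhibition.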

Columns and labels:
Test in all cases: NCI anticancer screen, dose series, 48 h
CCRF-CEM leukemia = test system: CCRF-CEM leukemia
NCI-H23 lung = test system: NCI-H23 lung
SNB-19 CNS = test system: SNB-19 CNS
T-47D breast = test system: T-47D breast
SF-295 CNS = test system: SF-295 CNS
HCC-2998 colon = test system: HCC-2998 colon
SK-MEL-2 melanoma = test system: SK-MEL-2 melanoma
SK-MEL-5 melanoma = test system: SK-MEL-5 melanoma
K-562 leukemia = test system: K-562 leukemia
HL-60(TB) leukemia = test system: HL-60(TB) leukemia

`Cc1cn(Cc2cnnn2CC2OC(n3cc(C)c(=O)[nH]c3=O)CC2O)c(=O)[nH]c1=O` (stereo not given) was tested, and the TGI (CCRF-CEM leukemia) was greater than 100 µM, the TGI (NCI-H23 lung) was greater than 100 µM and the TGI (SNB-19 CNS) was greater than 100 µM. It also gave a TGI (T-47D breast) greater than 100 µM, a TGI (SF-295 CNS) greater than 100 µM and a TGI (HCC-2998 colon) greater than 100 µM. The TGI (SK-MEL-2 melanoma) was greater than 100 µM and the TGI (SK-MEL-5 melanoma) was greater than 100 µM.
In the case of `Cc1c(NC(=O)CSC(=S)N2CCN(Cc3ccccc3)CC2)c(=O)n(-c2ccccc2)n1C`, the TGI (CCRF-CEM leukemia) is reported as greater than 100 µM, the TGI (NCI-H23 lung) is reported as greater than 100 µM and the TGI (SNB-19 CNS) is reported as greater than 100 µM. The TGI (T-47D breast) was greater than 100 µM, the TGI (SF-295 CNS) was greater than 100 µM and the TGI (HCC-2998 colon) was greater than 100 µM. For the same compound, the TGI (K-562 leukemia) was greater than 100 µM, the TGI (SK-MEL-2 melanoma) was greater than 100 µM and the TGI (SK-MEL-5 melanoma) was greater than 100 µM.
For `CCOC(=O)c1nc2ccc(C(F)(F)F)cc2nc1Oc1cc(OC)cc(OC)c1`, the TGI (CCRF-CEM leukemia) was greater than 100 µM, the TGI (SNB-19 CNS) was greater than 100 µM and the TGI (T-47D breast) was greater than 100 µM. The TGI (SF-295 CNS) was greater than 100 µM, the TGI (HL-60(TB) leukemia) was greater than 100 µM and the TGI (K-562 leukemia) was greater than 100 µM. For the same compound, the TGI (SK-MEL-2 melanoma) was greater than 100 µM and the TGI (SK-MEL-5 melanoma) was 79.1 µM.
In the case of `COC1OC2COC1(OC)C1OC(C)(C)OC21` (stereo not given), the TGI (CCRF-CEM leukemia) is reported as greater than 100 µM, the TGI (NCI-H23 lung) is reported as greater than 100 µM and the TGI (SNB-19 CNS) is reported as greater than 100 µM. For the same compound, the TGI (T-47D breast) was greater than 100 µM, the TGI (SF-295 CNS) was greater than 100 µM and the TGI (HCC-2998 colon) was greater than 100 µM. The TGI (K-562 leukemia) was greater than 100 µM, the TGI (SK-MEL-2 melanoma) was greater than 100 µM and the TGI (SK-MEL-5 melanoma) was greater than 100 µM.
`COc1ccc(-c2c(C#N)c(S)n(NS(=O)(=O)c3ccc(C)cc3)c(=O)c2C#N)cc1` gave a TGI (CCRF-CEM leukemia) of 26.8 µM, a TGI (SNB-19 CNS) greater than 100 µM and a TGI (SF-295 CNS) greater than 100 µM. It also gave a TGI (HL-60(TB) leukemia) of 33.2 µM, a TGI (HCC-2998 colon) greater than 100 µM and a TGI (K-562 leukemia) of 47.2 µM. For the same compound, the TGI (SK-MEL-2 melanoma) was 32.1 µM and the TGI (SK-MEL-5 melanoma) was 30 µM.
For `COc1ccc(C(=O)/C=C/c2c(Cl)c3c(c(OC)c2Cl)OCC(=O)N3)cc1`, the GI50 (CCRF-CEM leukemia) was 1.87 µM, the TGI (CCRF-CEM leukemia) was 8.44 µM and the GI50 (NCI-H23 lung) was 2.23 µM. For the same compound, the TGI (NCI-H23 lung) was 4.85 µM, the GI50 (SF-295 CNS) was 3.23 µM and the TGI (SF-295 CNS) was 32.7 µM. It also gave a GI50 (HL-60(TB) leukemia) of 2.49 µM, a TGI (HL-60(TB) leukemia) of 10.6 µM and a GI50 (K-562 leukemia) of 1.85 µM. It also gave a TGI (K-562 leukemia) of 7.73 µM, a GI50 (SK-MEL-2 melanoma) of 2.19 µM and a TGI (SK-MEL-2 melanoma) of 5.94 µM.
`O=c1cc(N2CCN(c3cc(=O)n4ccccc4n3)CC2)oc2ccccc12` was tested, and the TGI (CCRF-CEM leukemia) was greater than 100 µM, the TGI (NCI-H23 lung) was greater than 100 µM and the TGI (SNB-19 CNS) was greater than 100 µM. The TGI (T-47D breast) was greater than 100 µM, the TGI (SF-295 CNS) was greater than 100 µM and the TGI (HCC-2998 colon) was greater than 100 µM. It also gave a TGI (K-562 leukemia) greater than 100 µM, a TGI (SK-MEL-2 melanoma) greater than 100 µM and a TGI (SK-MEL-5 melanoma) greater than 100 µM.
`CCN(CC)c1ccc2cc(C(=O)Nc3cccc4ccccc34)c(=N)oc2c1` was tested, and the TGI (CCRF-CEM leukemia) was greater than 100 µM, the TGI (SNB-19 CNS) was greater than 100 µM and the TGI (T-47D breast) was greater than 100 µM. It also gave a TGI (SF-295 CNS) greater than 100 µM, a TGI (HL-60(TB) leukemia) greater than 100 µM and a TGI (HCC-2998 colon) greater than 100 µM. The TGI (K-562 leukemia) was greater than 100 µM, the TGI (SK-MEL-2 melanoma) was greater than 100 µM and the TGI (SK-MEL-5 melanoma) was greater than 100 µM.
Work on `CN1CCN(CCCBr)CC1` yielded a TGI (CCRF-CEM leukemia) greater than 100 µM, a TGI (NCI-H23 lung) greater than 100 µM and a TGI (SNB-19 CNS) greater than 100 µM. It also gave a TGI (T-47D breast) greater than 100 µM, a TGI (SF-295 CNS) greater than 100 µM and a TGI (HL-60(TB) leukemia) greater than 100 µM. It also gave a TGI (K-562 leukemia) greater than 100 µM, a TGI (SK-MEL-2 melanoma) greater than 100 µM and a TGI (SK-MEL-5 melanoma) greater than 100 µM.
`C(CCCCc1nnc(N2CCCCC2)o1)CCCc1nnc(N2CCCCC2)o1` gave a TGI (CCRF-CEM leukemia) greater than 100 µM, a TGI (NCI-H23 lung) greater than 100 µM and a TGI (SNB-19 CNS) greater than 100 µM. For the same compound, the TGI (SF-295 CNS) was greater than 100 µM, the TGI (HL-60(TB) leukemia) was greater than 100 µM and the TGI (HCC-2998 colon) was greater than 100 µM. The TGI (K-562 leukemia) was greater than 100 µM, the TGI (SK-MEL-2 melanoma) was greater than 100 µM and the TGI (SK-MEL-5 melanoma) was greater than 100 µM.
